# Measurements: patent US8586719B2, “Triterpenes for modulating gene expression and cell membrane, and as antiprotozoal agents” (Pacific Arrow Limited, priority 2005, dated 2013)
# How the values were obtained:
# [1] = tested on: angiopoietin-like 4; assay: Microarray gene expression in ES2 cells: angiopoietin-like 4; type: cell-based, human; settings: micro array
# Description: (§1) The composition comprises bioactive compounds from natural plants or synthesis. The majority of the plants are from the Sapindaceae family, which has 140-150 genera with 1400-2000 species. The program is based on our purification methods and biological assays including the MTT assay See International Application No. PCT/US05/31900, filed Sep. 7, 2005, U.S. Ser. No. 11/289,142, filed Nov. 28, 2005, and U.S. Ser. No. 11/131,551, filed May 17, 2005, and PCT/US2008/002086, 1188-ALA-PCT, filed Feb. 15, 2008, the contents of which are incorporated herein by reference. The details of Analysis of gene expression of ES2 cells after Y-treatment by Microarray, Data Analysis Methods and Western blot in PCT/US2008/002086, 1188-ALA-PCT, filed Feb. 15, 2008, the contents of which are incorporated herein by reference
# (§2) Angiogenesis is a process involving the growth of new blood vessels. It is a normal process in growth and development. However, this is also a fundamental step in the transition of tumors from a dormant state to a malignant state. The angiopoietins are protein growth factors that modulate angiogenesis. […]
# [2] = tested on: regulator of G-protein signalling 4 (RGS4); assay: Microarray gene expression in ES2 cells: regulator of G-protein; type: cell-based, human
# Description: as §1
# [3] = tested on: insulin-like growth factor binding protein 6 (IGFBP6); assay: Microarray gene expression in ES2 cells: IGFBP6; type: cell-based, human; settings: probe set 203851_at
# Description: as §1
# [4] = tested on: tumor bearing mice; assay: Animal studies in tumor bearing mice; type: in vivo
# Description: (Reference Experiments 7, 8, 9 in U.S. Ser. Nos. 11/683,198, filed on Mar. 7, 2007,). The animals died sooner if the treatment of Xanifolia-Y was delayed (comparing results of treatments started from 1, 4 or 10 days after tumor inoculation). […] Ovarian carcinoma cells express high levels of adhesion molecules. Adhesion proteins are present in both cancer cells and mesothelial cells. While the lost of adhesion blocks of the protein accessibility due to a result of modulating by Xanifolia-Y, In an embodiment, the interaction of Xanifolia-Y with membrane alter the adhesion protein's binding site(s).
# [5] = tested on: angiopoietin 1; assay: Microarray gene expression in ES2 cells: angiopoietin 1; type: cell-based, human; settings: micro array
# Description: as §1, §2
# [6] = tested on: RAB3B, member RAS oncogene family; assay: Microarray gene expression in ES2 cells: RAB3B; type: cell-based, human
# Description: as §1
# [7] = tested on: angiopoietin-like 1; assay: Microarray gene expression in ES2 cells: angiopoietin-like 1; type: cell-based, human; settings: micro array
# Description: as §1, §2
# [8] = tested on: Angiopoietin 2 (Ang2); assay: Up regulation of Angiopoietin 2 (Ang2) in ES2 cells; type: cell-based, human; settings: study in PCT/US2008/002086
# Description: The results of study in PCT/US2008/002086, 1188-ALA-PCT, filed Feb. 15, 2008 are incorporated herein by reference.
# [9] = tested on: dual specificity phosphatase 10 (DUSP10); assay: Microarray gene expression in ES2 cells: DUSP10; type: cell-based, human
# Description: as §1
smiles,measurement,setting,value
"C/C=C(/C)C(=O)O[C@H]1[C@H](OC(=O)/C(C)=C\C)[C@@]2(CO)C(CC1(C)C)C1=CCC3[C@@]4(C)CC[C@H](O[C@@H]5OC(C(=O)O)[C@@H](O)[C@@H](O[C@@H]6O[C@@H](CO)[C@@H](O)C6O)C5O[C@@H]5OC(CO)[C@H](O)[C@@H](O)C5O)C(C)(C)C4CC[C@@]3(C)[C@]1(C)[C@@H](O)[C@H]2O (stereo partly drawn) [Y, 3-O-[β-D-galactopyranosyl(1→2)]-α-L-arabinofuranosy (1→3)-β-D-glucuronopyranosyl-21,22-O-diangeloyl-3β, 15α, 16α, 21β, 22α, 28-hexahydroxyolean-12-ene]",gene expression of angiopoietin-like 4,[1],inhibit
same,"RGS4 expression, treated/D (DMSO control)",[2]; probe set 204337_at,−3.4
same,"RGS4 expression, treated/D (DMSO control)",[2]; probe set 204338_s_at,−2.5
same,"RGS4 expression, treated/D (DMSO control)",[2]; probe set 204339_s_at,−3.5
same,"IGFBP6 expression, treated/D (DMSO control)",[3],−1.3
same,life span of tumor bearing mice,"[4]; Experiments 7, 8, 9 of U.S. Ser. No. 11/683,198",extended the life span
same,migration or metastasis of the inoculated cancer cells,"[4]; treatment started 1, 4 or 10 days after tumor inoculation",inhibits migration or metastasis
same,gene expression of angiopoietin 1,[5],inhibit
same,"RAB3B expression, treated/D (DMSO control)",[6]; ID 205924_at,−1.7
same,"RAB3B expression, treated/D (DMSO control)",[6]; ID 205925_s_at,−1.2
same,"RAB3B expression, treated/D (DMSO control)",[6]; ID 227123_at,−1.6
same,"RAB3B expression, treated/D (DMSO control)",[6]; ID 242629_at,−3.5
same,gene expression of angiopoietin-like 1,[7],inhibit
same,Angiopoietin 2 (Ang2) in ES2 cells,[8],Up regulation
same,"DUSP10 expression (given as Y/D, YM/D)",[9]; 215501_s_at,3.2
same,"DUSP10 expression (given as Y/D, YM/D)",[9]; 221563_at,3.8
